These results are taken from article PMC6095626, “Screening of the Pathogen Box for inhibitors with dual efficacy against Giardia lamblia and Cryptosporidium parvum” (PLoS Neglected Tropical Diseases, 2018).

Experiment [1] has as its system G. lamblia trophozoites (luciferase expressing, WBC6). Put plainly: microbe, parasite or virus in culture. The format is cell-based, Giardia lamblia. To be noted: for Giardia (16 uM) Mean % inhibition: initial Pathogen Box screen, single concentration 16 µM, inhibition compared to DMSO wells; for G. lamblia inhibition of parasite growth in the initial screen: 16 μM, 24 hours; for inhibition at 16 µM: Giardia duodenalis, read-out: Giardia (16 uM) Mean % inhibition. The procedure: Trophozoites were harvested by chilling cultures on ice for 30 minutes and plated by adding 150 μL per well at a concentration of 250,000 cells/mL. Metronidazole (Sigma, St. Louis, MO) was used as a control and was serially diluted 1:2 from 40 μM to 0.04 μM and 150 μL was added to the 150 μL of the G. lamblia trophozoites. Plates were covered in plastic low-evaporation lids, sealed in individual anaerobic BD GasPak Bio-Bags (Becton Dickinson, San Jose, CA) and incubated at 37 °C for 24 hours. […] A duplicate plate was concurrently set up and assayed using a MOXI Z Mini Automated Cell Counter Kit (Orflo, Ketchum, ID). Results obtained from the bioluminescence assay and the MOXI counter data were compared to evaluate their correlation to each another. Albendazole (Sigma, St. Louis, MO), an alternative giardiasis therapeutic, was assayed in concentrations from 4 μM to 0.004 μM with only the luciferase expressing G. lamblia cells. […]

The subject of experiment [2] is C. parvum (UGA1 Nluc expressing strain in HCT-8 cells). Put plainly: microbe, parasite or virus in culture. The format is cell-based, Cryptosporidium parvum. The following applies: for Crypto (10 uM) Mean % inhibition: initial Pathogen Box screen, single concentration 10 µM, inhibition compared to DMSO wells; for inhibition at 10 µM: Cryptosporidium parvum, HCT-8, read-out: Crypto (10 uM) Mean % inhibition. As to the method: Growth inhibition and EC50 determination assays were performed using UGA1 Nluc expressing C. parvum strain in HCT-8 cells (ATCC^©, Manassas, VA) as previously described. HCT-8 cells were inoculated onto 96-well plates and allowed to grow for 48 hours to 90–100% confluence and then treated with single concentration (10 μM) or serially diluted compounds prior to oocyst infection. C. parvum oocysts were incubated for 10 minutes in 10% bleach at room temperature and then washed with DPBS. […] The cell monolayers were lysed for 1 hour before adding Nano-Glo® luciferase reagent (Promega, Madison, WI), and measuring relative luminescence units (RLU) in an EnVision Plate Reader (Perkin Elmer, Waltham, MA). Several parameters, including reproducibility and reliability, were previously evaluated to optimize this assay for low and high-throughput (HTP) screening of small molecule compounds against C. parvum. EC50 values were calculated using Prism 7 software (GraphPad Software, San Diego, CA).
C. parvum screening against the Pathogen Box compounds was performed as previously described starting at a concentration of 10 μM [23].

In general, inhibition refers to the relative decrease from the control value, in per cent.

`O[C@@H](c1cc(C(F)(F)F)nc2c(C(F)(F)F)cccc12)[C@H]1CCCCN1` [MMV000016]: in experiment [1], the “Giardia (16 uM) Mean % inhibition” value is reported as 16%. Also, the “Crypto (10 uM) Mean % inhibition” value in experiment [2] is on record as 77%.
The matching figures for `COc1cc(N[C@@H](C)CCCN)c2ncccc2c1` [MMV000023]: 47% and 14%.
For `N=C(N)c1ccc(OCCCCCOc2ccc(C(=N)N)cc2)cc1` [MMV000062, pentamidine, reference compound], in experiment [1], the “G. lamblia inhibition of parasite growth in the initial screen” value is given as “did not show up in the screen” and the inhibition at 16 µM is 9%. In experiment [2], the inhibition at 10 µM was 50%.
As for `CCN(CC)CCCCCCNc1cc(OC)cc2c(C)ccnc12` [MMV000063], in experiment [1], the “Giardia (16 uM) Mean % inhibition” value worked out at 26%. Also, the “Crypto (10 uM) Mean % inhibition” value in experiment [2] amounted to 62%.
Take `O=S(=O)(c1ccc(Cl)cc1)N1CCN(C(=S)NCc2ccco2)CC1` [MMV000858]: the “Giardia (16 uM) Mean % inhibition” value in experiment [1] turned out to be 3%. The “Crypto (10 uM) Mean % inhibition” value in experiment [2] is reported as 41%.
For `COc1cccc2c(C)nc(N=C(N)N)nc12` [MMV000907], in that order: 68% and 67%.
For `CCCS(=O)(=O)N1CCC(CO)(Cc2ccccc2C(F)(F)F)CC1` [MMV001059], in that order: 10% and “X* (Mean or standard deviation are negative but not significantly different from the control to be a growth promoter)”.
`COC(=O)C1=C(C)NC(C)=C(C(=O)OC(C)C)[C@H]1c1cccc2nonc12` [MMV001493]: in experiment [1], the “Giardia (16 uM) Mean % inhibition” value was found to be 25%. Further, the “Crypto (10 uM) Mean % inhibition” value in experiment [2] stood at 53%.
In the case of `CNCC[C@H](Oc1ccc(C(F)(F)F)cc1)c1ccccc1` [MMV001561], in experiment [1], the “Giardia (16 uM) Mean % inhibition” value is recorded as 15%. Besides, the “Crypto (10 uM) Mean % inhibition” value in experiment [2] is listed as “X* (Mean or standard deviation are negative but not significantly different from the control to be a growth promoter)”.
As for `NCCC[C@@](N)(C(=O)O)C(F)F` [MMV001625], the “Giardia (16 uM) Mean % inhibition” value in experiment [1] turned out to be 16%. Moreover, the “Crypto (10 uM) Mean % inhibition” value in experiment [2] was determined as 36%.
The matching figures for `O=C(C1CCCCC1)N1CC(=O)N2CCc3ccccc3[C@@H]2C1` [MMV002529]: 16% and 55%.
In the case of `CCN(CC)C(=O)N1CCN(C)CC1` [MMV002816], in experiment [1], the “Giardia (16 uM) Mean % inhibition” value came to 29%. The “Crypto (10 uM) Mean % inhibition” value in experiment [2] is “X* (Mean or standard deviation are negative but not significantly different from the control to be a growth promoter)”.
Turning to `COC(=O)Nc1nc2ccc(C(=O)c3ccccc3)cc2[nH]1` [MMV003152, mebendazole, reference compound], in experiment [1], the “G. lamblia inhibition of parasite growth in the initial screen” value is “did not show up in the screen” and the inhibition at 16 µM came out at 26%. Moreover, the inhibition at 10 µM in experiment [2] was found to be 91%.
`CN1CCCN(C(c2ccccc2)c2ccc(Cl)cc2)CC1` (stereo not shown) [MMV004168]: in experiment [1], the “Giardia (16 uM) Mean % inhibition” value amounted to 27%. Also, the “Crypto (10 uM) Mean % inhibition” value in experiment [2] is reported as 56%.
The matching figures for `O=C1Nc2ccc(Br)cc2C12NCCc1c2[nH]c2ccccc12` (stereo not shown) [MMV006239]: “X* (Mean or standard deviation are negative but not significantly different from the control to be a growth promoter)” and 53%.
The matching figures for `Cc1ccc2[nH]c3c(NCCN(C)C)ncnc3c2c1` [MMV006372]: 21% and 64%.
In the case of `COc1cc2ncnc(NC3CCN(Cc4ccccc4)CC3)c2cc1OC` [MMV006741], the “Giardia (16 uM) Mean % inhibition” value in experiment [1] stood at 35%. Moreover, in experiment [2], the “Crypto (10 uM) Mean % inhibition” value was determined as 45%.
As for `Cc1cc(Cl)c(S(=O)(=O)N2CCCC2)cc1OCC(=O)NC1CCCCC1` [MMV006833], the “Giardia (16 uM) Mean % inhibition” value in experiment [1] is listed as 17%. The “Crypto (10 uM) Mean % inhibition” value in experiment [2] is listed as 70%.
With `CN(C)c1cc(NC(=O)Nc2ccccc2)c2ccccc2n1` [MMV006901], the “Giardia (16 uM) Mean % inhibition” value in experiment [1] is on record as 49%. The “Crypto (10 uM) Mean % inhibition” value in experiment [2] was “X* (Mean or standard deviation are negative but not significantly different from the control to be a growth promoter)”.
For `Cc1cc(NC(=O)c2ccc(S(=O)(=O)N(Cc3ccccc3)C(C)C)cc2)no1` [MMV007133], in that order: 11% and “X* (Mean or standard deviation are negative but not significantly different from the control to be a growth promoter)”.
Turning to `COc1cc(OC)cc(C(=O)NCC2Cc3cc(Cl)cc(-c4ccncc4)c3O2)c1` (stereo not shown) [MMV007471], the “Giardia (16 uM) Mean % inhibition” value in experiment [1] was 23%. Besides, in experiment [2], the “Crypto (10 uM) Mean % inhibition” value came to 50%.
The matching figures for `Cc1cc(C)n(-c2ccc(NC(=O)C3CCN(Cc4cnc(C)s4)CC3)cc2)n1` [MMV007625]: 27% and “X* (Mean or standard deviation are negative but not significantly different from the control to be a growth promoter)”.
For the compound `CCOc1ccc(-c2nc(NC(=O)CS(=O)(=O)c3ccccc3)sc2C)cc1` [MMV007638], the “Giardia (16 uM) Mean % inhibition” value in experiment [1] is listed as 8%. The “Crypto (10 uM) Mean % inhibition” value in experiment [2] is on record as “X* (Mean or standard deviation are negative but not significantly different from the control to be a growth promoter)”.
For `O=C(NC1CC1)c1ccc(CSCc2ccccc2Cl)o1` [MMV007803], in that order: 6% and “X* (Mean or standard deviation are negative but not significantly different from the control to be a growth promoter)”.
For `Nc1ccc(C(=O)Nc2ccc(-c3nc4ccccc4o3)cc2)cc1` [MMV007920], in that order: 60% and 63%.
For `COc1ccc(CN2CCOc3ccc(C(C)(O)CN(C)C)cc3C2)cc1C` (stereo not shown) [MMV008439], in that order: 35% and 68%.
With `Cc1cc(C(=O)Nc2cnn(Cc3ccc(Cl)cc3Cl)c2)no1` [MMV009054], the “Giardia (16 uM) Mean % inhibition” value in experiment [1] was “X* (Mean or standard deviation are negative but not significantly different from the control to be a growth promoter)”. For the same compound, the “Crypto (10 uM) Mean % inhibition” value in experiment [2] was determined as 59%.
For the compound `O=C(C1CCN(c2nnnn2-c2ccccc2)CC1)N1CCc2ccccc2C1` [MMV009135], in experiment [1], the “Giardia (16 uM) Mean % inhibition” value is listed as “X* (Mean or standard deviation are negative but not significantly different from the control to be a growth promoter)”. The “Crypto (10 uM) Mean % inhibition” value in experiment [2] is given as 56%.
With `COc1ccc(-c2cnc3ccc(NCc4ccc(S(N)(=O)=O)cc4)nn23)cn1` [MMV010545], in experiment [1], the “Giardia (16 uM) Mean % inhibition” value is recorded as “X* (Mean or standard deviation are negative but not significantly different from the control to be a growth promoter)”. In experiment [2], the “Crypto (10 uM) Mean % inhibition” value is “X* (Mean or standard deviation are negative but not significantly different from the control to be a growth promoter)”.
As to `c1csc(-c2cnc3sc(NCC4CCOCC4)nn23)c1` [MMV010764], the “Giardia (16 uM) Mean % inhibition” value in experiment [1] is given as “X* (Mean or standard deviation are negative but not significantly different from the control to be a growth promoter)”. Besides, the “Crypto (10 uM) Mean % inhibition” value in experiment [2] is given as “X* (Mean or standard deviation are negative but not significantly different from the control to be a growth promoter)”.
Turning to `Cc1cc(Nc2ccc(C(F)(F)F)cc2)n2ccnc2n1` [MMV011229], the “Giardia (16 uM) Mean % inhibition” value in experiment [1] worked out at 35%. The “Crypto (10 uM) Mean % inhibition” value in experiment [2] is reported as “X* (Mean or standard deviation are negative but not significantly different from the control to be a growth promoter)”.
